According to ChEMBL document CHEMBL3785079, “Structure-Activity Study of Bioisosteric Trifluoromethyl and Pentafluorosulfanyl Indole Inhibitors of the AAA ATPase p97” (ACS Med Chem Lett, 2015):

Molecular target: Transitional endoplasmic reticulum ATPase (Homo sapiens, UniProt P55072)
Experiment: Inhibition of wild type human AAA ATPase p97 expressed in Escherichia coli measured by ADPGlo assay in presence of 100 uM ATP

Sequence of Transitional endoplasmic reticulum ATPase (P55072 whole entry): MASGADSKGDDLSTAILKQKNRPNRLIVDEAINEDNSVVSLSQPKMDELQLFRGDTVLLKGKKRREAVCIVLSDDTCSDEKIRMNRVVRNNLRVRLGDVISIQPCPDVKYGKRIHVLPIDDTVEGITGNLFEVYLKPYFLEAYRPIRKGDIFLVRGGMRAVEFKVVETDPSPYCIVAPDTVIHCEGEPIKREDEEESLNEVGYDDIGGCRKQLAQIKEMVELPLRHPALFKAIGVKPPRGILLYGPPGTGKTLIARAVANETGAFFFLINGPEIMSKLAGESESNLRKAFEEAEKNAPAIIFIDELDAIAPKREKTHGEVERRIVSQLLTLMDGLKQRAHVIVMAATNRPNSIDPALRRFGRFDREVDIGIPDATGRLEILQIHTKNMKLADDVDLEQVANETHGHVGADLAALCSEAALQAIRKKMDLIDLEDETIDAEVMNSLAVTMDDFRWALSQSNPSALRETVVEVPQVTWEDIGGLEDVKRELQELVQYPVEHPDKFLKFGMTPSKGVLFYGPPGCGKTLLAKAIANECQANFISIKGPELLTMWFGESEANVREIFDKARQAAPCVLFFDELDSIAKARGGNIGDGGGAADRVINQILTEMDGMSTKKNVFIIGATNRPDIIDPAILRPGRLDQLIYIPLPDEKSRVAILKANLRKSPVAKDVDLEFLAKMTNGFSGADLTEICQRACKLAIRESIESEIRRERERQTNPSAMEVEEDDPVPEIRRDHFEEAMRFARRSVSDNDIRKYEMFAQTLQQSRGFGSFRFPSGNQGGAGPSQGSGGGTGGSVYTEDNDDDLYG

| SMILES | IC50 [nM] |
| --- | --- |
| Cc1ccc2[nH]c(-c3cccc(N4CCC(NCCN5CCN(C(C)C)CC5)CC4)c3)cc2c1 | 240 |
| COc1ccc2[nH]c(-c3cccc(N4CCC(NCCN5CCN(C(C)C)CC5)CC4)c3)cc2c1 | 710 |
| CC(C)N1CCN(CCNC2CCN(c3cccc(-c4cc5cc(C(F)(F)F)ccc5[nH]4)c3)CC2)CC1 | 4700 |
| CC(C)N1CCN(CCNC2CCN(c3cccc(-c4cc5cc(OC(F)(F)F)ccc5[nH]4)c3)CC2)CC1 | 3800 |
| CC(C)N1CCN(CCNC2CCN(c3cccc(-c4cc5cc([N+](=O)[O-])ccc5[nH]4)c3)CC2)CC1 | 50 |
| CC(C)N1CCN(CCNC2CCN(c3cccc(-c4cc5cc(S(F)(F)(F)(F)F)ccc5[nH]4)c3)CC2)CC1 | 21500 |
